Test results: BindingDB's records for doi:10.1016/s0960-894x(03)00677-2 (Pharmacor, 2003)

Biological target: T1, Dimer of Gag-Pol polyprotein [501-599] (Human immunodeficiency virus 1, UniProt P03367)
T1 construct: 501-599
Experiment: Protease Inhibition Assay
Settings: pH 4.7; 30 °C
Description: HIV-1 protease activity was measured by a continuous fluorometric assay using the internally quenched fluorogenic substrate DABCYL-Ser-Gln-Asn-Tyr-Pro-Ile-Val-Gln-EDANS. The proteolytic activity can be monitored by the increase in fluorescence intensity, and the protease products were analyzed by HPLC.

Row | Compound | IC50
1 | O[C@@H]([C@H](O)[C@@H](COc1ccccc1)OCc1ccccc1)[C@@H](COc1ccccc1)OCc1ccccc1 [(2R,3S,4S,5R)-2,5-bis(benzyloxy)-1,6-diphenoxyhexane-3,4-diol] | > 50 µM
2 | O[C@H]([C@H](O)[C@H](COCc1ccccc1)OCc1ccccc1)[C@@H](COCc1ccccc1)OCc1ccccc1 [(2R,3R,4S,5S)-1,2,5,6-tetrakis(benzyloxy)hexane-3,4-diol] | > 50 µM
3 | O[C@H]([C@H](O)[C@@H](COCc1ccccc1)OCc1ccccc1)[C@@H](COCc1ccccc1)OCc1ccccc1 [(2R,3R,4S,5R)-1,2,5,6-tetrakis(benzyloxy)hexane-3,4-diol] | > 50 µM
4 | O[C@@H](C[C@@H](COCc1ccccc1)OCc1ccccc1)[C@@H](COCc1ccccc1)OCc1ccccc1 [(2R,3S,5S)-1,2,5,6-tetrakis(benzyloxy)hexan-3-ol] | > 50 µM
5 | O[C@@H]([C@H](O)[C@@H](Cc1ccccc1)OCc1ccccc1)[C@@H](Cc1ccccc1)OCc1ccccc1 [(2R,3S,4S,5R)-2,5-bis(benzyloxy)-1,6-diphenylhexane-3,4-diol] | > 50 µM
6 | O[C@H]([C@@H](O)[C@H](COCc1ccccc1)OCc1ccccc1)[C@H](COCc1ccccc1)OCc1ccccc1 [(2S,3R,4R,5S)-1,2,5,6-tetrakis(benzyloxy)hexane-3,4-diol] | > 50 µM
7 | O[C@@H]([C@H](O)[C@@H](COCc1ccccc1)OCc1ccccc1)[C@H](COCc1ccccc1)OCc1ccccc1 [(2R,3S,4S,5S)-1,2,5,6-tetrakis(benzyloxy)hexane-3,4-diol] | > 50 µM
